Measurements published in patent US8778401B2, “Mesoporous material excipients for poorly aqueous soluble ingredients” (Agency for Science, Technology and Research, priority 2008, dated 2014).

Tests used:
Assay type in all cases: physicochemical
[1] = Dissolution of spray-dried indomethacin with SBA-15 in pH 6.8 phosphate buffer; details: 900 mL of pH 6.8 phosphate buffer
Procedure: FIG. 15 illustrates dissolution profiles of spray-dried indomethacin with SBA-15 in powder form and tablet form, and a comparison with raw indomethacin crystal. (900 mL of pH 6.8 phosphate buffer, 50 mg spray-dried indomethacin with SBA-15 in powder form or tablet with 800 mg cornstarch at 1 ton press, raw crystal form is 25 mg).

[2] = Storage stability of the amorphous form at 40° C./75% RH (XRD); details: same conditions (40° C./75% RH) for just one week
Procedure: The storage stability was tested in severe storage condition of 75% relative humidity and temperature of 40° C., denoted as 40° C./75% RH.
A broad peak at 2-θ of 15-30° is typical in diffraction patterns of X-ray amorphous silica.
The amorphous state of these drugs formed by spray drying with mesoporous materials is stable after being subject to stress conditions of 40° C./75% RH for at least six months.

[3] = Dissolution test of ibuprofen formulations (USP dissolution tester, online UV); details: 900 mL 0.1N HCl at 37° C., 100 rpm
Procedure: The suspension was spray-dried in a Buchi Spray Drier B290. The inlet temperature was set to 81° C. and the outlet temperature was ˜50° C. The pump speed was set to “20”. […] Stirring speed is 100 rpm. Sample was taken by auto sampling system at interval of 5 min. UV reading was taken at wavelength 222 nm.
The dissolution profile was measured using VK7010 (Varian Co) USP dissolution tester with flow cell online UV-vis analysis system. Stirring rate is 100 rpm and vessel temperature is set at 37° C.
The dissolution is performed using the same method as in Example 1.

COc1ccc2c(c1)c(CC(=O)O)c(C)n2C(=O)c1ccc(Cl)cc1 [commercial indomethacin, indomethacin]
dissolution within 15 min [1]: 25%

COc1ccc2c(c1)c(CC(=O)O)c(C)n2C(=O)c1ccc(Cl)cc1 [indomethacin]
stability of amorphous form after storage [2]: re-crystallized

CC(C)Cc1ccc(C(C)C(=O)O)cc1 (stereo not shown) [pure ibuprofen crystal, ibuprofen]
Dissolution test data 15 min ([3]; 25 mg ibuprofen or equivalent, 15 min): 17.5%
Dissolution test data 30 min ([3]; 25 mg ibuprofen or equivalent, 30 min): 25.6%
Dissolution test data 45 min ([3]; 25 mg ibuprofen or equivalent, 45 min): 35.6%
dissolved in 15 min ([3]; powder form, 15 min): 17.5%
dissolved within 15 min, tablet form ([3]; tablet with 0.8 g cornstarch, 1 ton press, 15 min): 16.4%
